In data set [1] the test system is PC-3. The data set can be described thus: Oxidative stress (H2DCFDA fluorescence), PC-3. The note with it: 1, 2 and 4 µM, 24 h, vs vehicle. The data set is classed as cell-based. As to the method: The compound 2′,7′-dichlorofluorescin (H2DCFDA) was used to detect changes in the oxidative stress status, as previously described in PC-3 and DU145. […] The cells were then washed 3 times with 1× PBS for 5 min each. The level of reactive oxygen species was then measured, based on the fluorescence level of oxidized H2DCFDA dye (excitation at 485 nm and emission at 535 nm), using an EVOS digital fluorescent microscope at 40×.

Data set [2] deals with DU145. Kind of data set: Transwell migration assay, DU145. The data set is classed as cell-based. The conditions noted are these: 0.5, 1 or 2 μM, 24 h. How it is done: The assay was done as previously described. The effect of RP-010, (0.5, 1 or 2 µM) on the migration of PC cells was tested using 24 trans-well inserts with an […] pore size. The addition of the insert to the well forms two chambers (upper and lower), where the upper chamber was used to grow the cells on the porous membrane. The lower chamber was filled with 600-μL cell-free DMEM medium. 200-μL of the cell suspension was added to each insert, and cells allowed to attach for 1 h. The test compound was added in different concentrations and incubated with the cells for 24 h. […] Finally, the remaining migrated cells were fixed by methanol, and stained with 0.1% crystal violet dye and counted with an EVOS microscope. The number of migrated cells was counted for the cultures incubated with vehicle or RP-010.

Data set [3] concerns DU145. The data set can be described thus: Colony formation assay, DU145. The conditions noted are these: 1 or 2 µM, vs vehicle. In kind it is cell-based. How it is done:
This assay was performed as previously described. The DU145 and PC-3 cells were incubated with RP-010 (1 or 2 µM) for 24 h. […], the medium was discarded and cells were trypsinized with 0.25% trypsin, 2.21-mM EDTA, and then harvested, counted, and reseeded in 6-well plates at a low density (500 cell/well). The cells were allowed to form colonies for 10–14 days at 37 °C, with the medium being changed every other day. Subsequently, methanol was used to fix the colonies formed in each plate, followed by staining the colonies with 0.1% crystal violet dye for 30 min. Finally, colonies were viewed and counted under an EVOS microscope (Themo Fisher Scientific, Wayne, MI, USA). The colony formation rate equation was applied for each compound: Colony formation rate = the number of colonies/numbers of seeded cells × 100%.

The subject of data set [4] is PC-3. The data set can be described thus: MTT cytotoxicity assay, PC-3 prostate cancer cells. The conditions noted are these: MTT assay, means ± SDs of three independent experiments, read-out: IC50 ± SD, Prostate Cancer Cells, PC-3. In kind it is cell-based. How it is done:
All the cells were cultured as adherent monolayers in culture flasks, and were used to determine the anti-cancer efficacy of RP-010. DMEM supplemented with 4.5 g of glucose, 10% fetal bovine serum (FBS) and 1% penicillin/streptomycin, was used to augment cell growth. Finally, the cells were incubated and grown in a humidified incubator containing 5% CO2 at 37 °C [50]. […] Cells were obtained from frozen stocks and cell passaging (up to P4) was performed at 80% cell confluency, using PBS and trypsin + 2.2-mM EDTA.
MTT assays were used to determine the cytotoxicity of the RP compounds, to PC cell lines, as previously described.

Another data set has as its system HCT115. The arrangement: method as in PMID 28759878. The note with it: colon cancer cell line; cited from earlier work.
The next data set relates to zebrafish. Kind of data set: Zebrafish toxicity model. In kind it is in vivo. How it is done:
The zebrafish toxicity studies were conducted as previously described. Five days-post fertilization larvae (5 fish/well) were exposed to vehicle or RP-010 (0, 0.3, 1, 3, 6, and 10 µM). Subsequently, the zebrafish were observed visually, and pictures were taken at 24- and 48-hour post exposure (hpe). […] The zebrafish studies were approved by the University of Toledo Institutional Animal Care and Use Committee (#105414, approved on 10/2018).

Data set [5] deals with DU145. Kind of data set: Wound healing assay, DU145. The conditions noted are these: 0.5, 1, 2 or 4 µM, 12-48 h, vs vehicle. In kind it is cell-based. How it is done:
This assay was conducted using DU145 and PC-3 cells as previously described. Upon confluence, 200 μL sterile tips were used to create a wound by gently scratching the complete cell monolayer. Sterile PBS was used to wash the cells several times to remove any floating cells. Different concentrations of the test compound were prepared in the culture media and added immediately after wound formation. The closure of the wound was observed by taking pictures at different time points by the EVOS microscope (Thermo Fisher Scientific, Wayne, MI, USA). Finally, the area of the wounds, at different time points, was calculated using Image J software (NIH, Bethesda, MD, USA).

Data set [6] relates to Bak, Bax, Bcl2, caspase 3, PARP, cytochrome c in DU145 cells. Kind of data set: Western analysis of apoptosis-regulating proteins, DU145. The data set is classed as cell-based. The note with it: 1 or 2 μM, 24 h. As to the method:
DU145 cells were incubated with RP-010 ((1 or 2 µM) for 24 h. Thereafter, the cells were subjected to a two-step lysis process to extract and separate the cytosolic and the nuclear proteins, as previously described. Next, protein separation for both cytosolic and nuclear proteins was achieved by electrophoresing the samples through acrylamide SDS-PAGE gels, followed by transfer to a PVDF membrane. The PVDF membrane was then incubated overnight with the following primary antibodies: rabbit α-tubulin, 1:4000 dilution, rabbit BAX (1:1000), rabbit BAK (1:1000), rabbit cytochrome c (1:1000), rabbit PARP (1:5000), rabbit β-Catenin (1:4000), rabbit DVL3 (1:4000), rabbit LRP-6 (1:1000), rabbit P-LRP-6 (1:1000), rabbit c-Myc (1: 4000), rabbit cyclin B1 (1:2000), rabbit Wnt 5a (1:1000), rabbit naked 1 and naked 2 (1:1000), mouse E-cadherin (1:4000), mouse N-cadherin (1:4000), mouse β-actin (1:5000) and rabbit histone (1:3000). Finally, protein expression levels were determined as described previously. In the Figure 3, Figure 5 and Figure S8, the protein blots above β-actin were cytosolic lysates, while all the proteins below β-actin and above histones (loading controls) were nuclear lysates.

This is an account of results in article PMC6563099, “Novel Thienopyrimidine Derivative, RP-010, Induces β-Catenin Fragmentation and Is Efficacious against Prostate Cancer Cells” (Cancers, 2019).

Where two headings read alike, the source gives them in different places. Where only a bound is given, the exact number is not on record here.

As a reminder, the IC50 is the point on the concentration scale where inhibition reaches its midpoint. Consider `COc1ccc(-c2nc3sc4c(c3c(=O)[nH]2)CCCC4)cc1` [RP10], for which the “Reactive oxygen species (ROS) level” value in the data set on PC-3 [1] is recorded as “elevated ROS levels”. Moreover, in the data set on DU145 [2], the “Number of cells migrating across the membrane (transwell)” value is recorded as “significantly decreased”. Moreover, in the data set on DU145 [3], the “Size of the colonies” value is “significantly decreased”. For the same molecule, the Colony formation result in the data set on DU145 [3] (p < 0.01) is listed as “significantly decreased”. Moreover, in the data set on PC-3 [4] (listed as RP-010), the IC50 is below 1000 nM. In addition, the IC50 in the data set on PC-3 [4] was determined as 300 ± 100 nM. In addition, in the data set with HCT115, the IC50 was 700 ± 200 nM. Besides, the “Concentration well tolerated / without significant toxic effects” value with zebrafish (zebrafish) is reported as “up to 6 µM”. Also, the Mortality entry in the data set with zebrafish (zebrafish larvae, 0.3, 1, 3, 6 or 10 µM, 24 and 48 h exposure) is “did not significantly increase”. For the same molecule, the “Wound healing (cell migration)” value in the data set with DU145 [5] is given as “significant decrease”. Moreover, in data set [6], the “Expression of Bax” value is “did not significantly alter”, the “Levels of cytochrome c” value is given as “did not significantly alter” and the “Levels of total cytosolic PARP” value was “significantly reduced”. In data set [6] (p < 0.001), the “Cleavage of caspase-3” value is on record as “significantly increased”. Moreover, in data set [6] (p < 0.01), the “Expression of Bcl2” value is “significantly downregulated” and the “Levels of cleaved nuclear PARP” value was “increased”. The “Levels of cleaved cytosolic PARP” value in data set [6] (p < 0.05) is “significantly increased”. For the same molecule, the “Expression level of Bak, increase” value in data set [6] (vs vehicle, p < 0.01) is at least 2 fold.
